15 compounds from patent US9637491B2, “Pyrazolo[4,3-D]pyrimidines as kinase inhibitors” (Origenis GmbH, priority 2012, dated 2017) can be followed below.

The structures appear in SMILES notation. pIC50: −log10 of the molar value. A value given as a limit tells only on which side of the number the result lay.

In general, pIC50 refers to −log10 of the IC50, conventionally taken in molar units. Read a high pIC50 as a low IC50.

This assay has as its target T1, SYK kinase (Homo sapiens, UniProt P43405).
T1 construct: purchased Invitrogen, Carlsbad
The assay can be described thus: SYK assay (OMNIA Kinase Assay, Invitrogen). Type of assay: biochemical. As to conditions: SYK Activities; 1 mM ATP, 10 μM Omnia Peptide Substrate Tyr 7, 30° C. The method in brief: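 Continuous-read fluorescence kinase assay: SOX-labelled Tyr 7 peptide (10 μM) with 1 mM ATP and 0.2 mM DTT, 30° C, reaction started by adding SYK. Fluorescence (ex 360/em 485 nm) read every 30 s for 30 min. IC50 from sigmoidal fit of reaction velocity versus inhibitor concentration.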
Turning to `COCCCn1cc(Nc2nc(-c3cocn3)nc3cn[nH]c23)cn1` [Example 245, N-(1-(3-methoxypropyl)-1H-pyrazol-4-yl)-5-(oxazol-4-yl)-1H-pyrazolo[4,3-d]pyrimidin-7-amine], the pIC50 is > 8.00.

`CC(C)Cn1cc(Nc2nc(-c3cocn3)nc3cn[nH]c23)cn1` [Example 246, N-(1-isobutyl-1H-pyrazol-4-yl)-5-(oxazol-4-yl)-1H-pyrazolo[4,3-d]pyrimidin-7-amine] had a pIC50 of 7.00 to 8.00.

`OCCn1cc(Nc2nc(-c3cocn3)nc3cn[nH]c23)cn1` [Example 247, 2-(4-((5-(oxazol-4-yl)-1H-pyrazolo[4,3-d]pyrimidin-7-yl)amino)-1H-pyrazol-1-yl)ethan-1-ol] had a pIC50 of 7.00 to 8.00.

Compound `CC(C)(C)n1cc(Nc2nc(-c3ncco3)nc3cn[nH]c23)cn1` [Example 249, N-(1-(tert-butyl)-1H-pyrazol-4-yl)-5-(oxazol-2-yl)-1H-pyrazolo[4,3-d]pyrimidin-7-amine] showed a pIC50 of 6.00 to 7.00.

`CC(C)n1cc(Nc2nc(-c3ncco3)nc3cn[nH]c23)cn1` [Example 250, N-(1-isopropyl-1H-pyrazol-4-yl)-5-(oxazol-2-yl)-1H-pyrazolo[4,3-d]pyrimidin-7-amine] had a pIC50 of 6.00 to 7.00.

`COCCCn1cc(Nc2nc(-c3ncco3)nc3cn[nH]c23)cn1` [Example 251, N-(1-(3-methoxypropyl)-1H-pyrazol-4-yl)-5-(oxazol-2-yl)-1H-pyrazolo[4,3-d]pyrimidin-7-amine] had a pIC50 of 6.00 to 7.00.

Take `CC(C)Cn1cc(Nc2nc(-c3ncco3)nc3cn[nH]c23)cn1` [Example 252, N-(1-isobutyl-1H-pyrazol-4-yl)-5-(oxazol-2-yl)-1H-pyrazolo[4,3-d]pyrimidin-7-amine]: the pIC50 is 6.00 to 7.00.

As to `OCCn1cc(Nc2nc(-c3ncco3)nc3cn[nH]c23)cn1` [Example 253, 2-(4-((5-(oxazol-2-yl)-1H-pyrazolo[4,3-d]pyrimidin-7-yl)amino)-1H-pyrazol-1-yl)ethan-1-ol], the pIC50 was 6.00 to 7.00.

`c1coc(-c2nc(Nc3cnn(C4CCOCC4)c3)c3[nH]ncc3n2)n1` [Example 254, 5-(oxazol-2-yl)-N-(1-(tetrahydro-2H-pyran-4-yl)-1H-pyrazol-4-yl)-1H-pyrazolo[4,3-d]pyrimidin-7-amine] gave a pIC50 of 6.00 to 7.00.

In turn, `CN1CCC(n2cc(Nc3nc(-c4ncco4)nc4cn[nH]c34)cn2)CC1` [Example 255, N-(1-(1-methylpiperidin-4-yl)-1H-pyrazol-4-yl)-5-(oxazol-2-yl)-1H-pyrazolo[4,3-d]pyrimidin-7-amine] gave a pIC50 of 6.00 to 7.00.

Turning to `COCCn1cc(Nc2nc(-c3ncco3)nc3cn[nH]c23)cn1` [Example 256, N-(1-(2-methoxyethyl)-1H-pyrazol-4-yl)-5-(oxazol-2-yl)-1H-pyrazolo[4,3-d]pyrimidin-7-amine], the negative-log IC50 (pIC50) is 6.00 to 7.00.

Regarding `CC(=O)N1CCC(n2cc(Nc3nc(-c4ncco4)nc4cn[nH]c34)cn2)CC1` [Example 257, 1-(4-(4-((5-(oxazol-2-yl)-1H-pyrazolo[4,3-d]pyrimidin-7-yl)amino)-1H-pyrazol-1-yl)piperidin-1-yl)ethan-1-one], the pIC50 is 6.00 to 7.00.

The compound `CC(C)(C)n1cc(Nc2nc(-c3cccc(NS(C)(=O)=O)c3)nc3cn[nH]c23)cn1` [Example 258, N-(3-(7-((1-(tert-butyl)-1H-pyrazol-4-yl)amino)-1H-pyrazolo[4,3-d]pyrimidin-5-yl)phenyl)methanesulfonamide] had a pIC50 of 6.00 to 7.00.

In turn, `CC(C)n1cc(Nc2nc(-c3cccc(NS(C)(=O)=O)c3)nc3cn[nH]c23)cn1` [Example 259, N-(3-(7-((1-isopropyl-1H-pyrazol-4-yl)amino)-1H-pyrazolo[4,3-d]pyrimidin-5-yl)phenyl)methanesulfonamide] had a pIC50 of 7.00 to 8.00.

`COCCCn1cc(Nc2nc(-c3cccc(NS(C)(=O)=O)c3)nc3cn[nH]c23)cn1` [Example 260, N-(3-(7-((1-(3-methoxypropyl)-1H-pyrazol-4-yl)amino)-1H-pyrazolo[4,3-d]pyrimidin-5-yl)phenyl)methanesulfonamide] had a pIC50 of 7.00 to 8.00.
